The text below walks through data of publication PMC7044166 (Scientific Reports, 2020).

By AUC(0-inf) is commonly meant the area under the concentration-time curve extrapolated to infinity. As a reminder, the Tmax is the time at which the peak concentration occurs. For orientation: Cmax means the highest concentration seen after dosing.

A short description of data set [1]: Pharmacokinetic interaction study of DSV and TAM/TOH after oral single or co-administration to Wistar rats (UPLC-MS/MS of plasma, NCA). The settings on record: for AUC(0-inf) / Tmax / half-life / Cmax: male, Wistar, rat, plasma, po, mean ± SD, n = 5; for half-life: read-out: t½ (converted); for Cmax: rat plasma; for change in PK parameters following co-administration compared with single administration: Group III (DSV 50 mg/kg + TAM 10 mg/kg, oral) vs Group I (DSV) and Group II (TAM), only exception tmax of TOH; for M.R.(%) metabolite ratio: ratio of AUC0-∞ of TOH to that of TAM, rats. In kind it is in vivo.
Experimental: The rats were acclimatized for seven days before starting the experiment. All rats were kept in a well-ventilated room and under standard laboratory conditions; 12 h day/night cycle, average temperature of 25 ± 2 °C, and average relative humidity of 50 ± 2%.
Three group of randomly distributed rats (n = 5) were used to conduct the study. […] Following drug administration, orbital blood samples (0.3 mL) were collected into a series of 1.5 mL polythene heparinized tubes prior to dosing (0 time) and at different time intervals following the drug administration; 0.25, 0.5, 1, 2, 4, 5, 12, 24, and 48 h. Immediate centrifugation (4,500 rpm) of collected blood samples was performed at 4 °C for 30 min. The resulting plasma samples were then stored at −20 °C until the day of analysis. Plasma samples (50 µL) were separately mixed with 50 µL OND, IS, (50 ng/mL), 150 µL of 2% formic acid, and finally completed to 1-mL volume with acetonitrile. Sample preparation was then carried out exactly as mentioned under the experimental section. […] These concentrations were then plotted versus the corresponding withdrawal time.
Plasma concentration-time data were treated by the non-compartmental analysis (NCA) method using PKSolver Add-In Excel 2010. Different PK parameters were calculated. They included maximum drug plasma concentration (Cmax) and the time required to reach the maximum plasma concentration (tmax). Both Cmax and tmax were derived from plasma concentration-time curve simply by visual inspection of the data. Using the PKSover, the elimination rate constant (Kel), the half-life (t1/2), the area under the plasma concentration-time curve from 0 time to the last sampling time t (AUC0-t), the area under the plasma concentration-time curve from 0 time to ∞ (AUC0-∞), and the apparent oral clearance (CL/F) were calculated. Kel was calculated from the slope of the plasma concentration-time curve during the elimination phase and from which t1/2 was derived, t1/2 = 0.693/Kel. The linear trapezoidal rule was used to calculate AUC0-t. The summation of AUC0-t and the extrapolated area from time t to ∞, calculated from the last measured concentration (Clast), result in total AUC from 0 time to ∞, AUC0-∞, AUC0-∞ = AUC0-t + (Clast/Kel). CL/F was calculated by dividing the dose by AUC0-∞. The relative bioavailability (R.B.) was obtained from the ratio of AUC0-∞ of the treated group to AUC0-∞ of the control group.

Data set [2] is described as follows: Stability of DSV, TAM and TOH in rat plasma under storage and treatment conditions. In kind it is in vitro ADME. Conditions: six determinations; for recovery at 56 h / recovery at 6 h / recovery / recovery at 30 days: Wistar, rat, rat plasma; for recovery at 56 h: rat plasma (prepared QC samples in the auto-injector), 10 °C, read-out: Auto-sampler stability, mean recovery (%) ± RSD; for recovery at 6 h / recovery / recovery at 30 days: rat plasma (spiked QC samples); for recovery at 6 h: 25 °C, read-out: Short-term stability, mean recovery (%) ± RSD; for recovery / recovery at 30 days: −30 °C; for recovery: 3 cycles, read-out: Freeze-thaw stability, mean recovery (%) ± RSD; for recovery at 30 days: read-out: Long-term stability, mean recovery (%) ± RSD; for recovery at 3 months: analyte solutions, 4 °C, read-out: Refrigerator stability, mean recovery (%) ± RSD. The protocol:
This ensures that no detectable degradation was noticed and that all analytes were stable under the studied conditions. The analytes’ solutions were also stable when kept refrigerated at 4 °C for 3 months or at room temperature for up to 6 h.
Samples were subjected to different storage conditions. Auto-sampler stability was assessed by leaving prepared samples in the auto-injector (10 °C, 56 h) before the injection. Short-term (bench top) stability was evaluated by analyzing samples after being stored at room temperature (25 °C, 6 h). On the other hand, long-term stability was assessed by analyzing samples which had been frozen before analysis (−30 °C, 30 days). Stability of samples was also assessed following three freeze–thaw cycles (frozen at −30 °C, thawed at 25 °C).

Details of data set [3]: method as in earlier work. Conditions: cited from earlier work.
The test system of data set [4] is estrogen-dependent cell proliferation. Conditions: relative to TAM, cited from earlier work.
Where [5] appears, read: oral co-administration of DSV 50 mg/kg and TAM 10 mg/kg (TOH as metabolite of TAM).
Setting [6] is: single oral administration, DSV 50 mg/kg or TAM 10 mg/kg (TOH as metabolite of TAM).
Where [7] appears, read: high concentration level (800, 400, 400 ng/mL for DSV, TAM, TOH).

Several values for one entry are separate records, joined by “and”; a condition that tells them apart may be missing. Equal entries are not always repeated. Where two headings read alike, the source gives them in different places.

For the compound `CC/C(=C(\c1ccccc1)c1ccc(OCCN(C)C)cc1)c1ccccc1` [TAM, Tamoxifen], in data set [1] (setting [5]), the AUC(0-inf) was 3510 ± 464 ng·h/mL, the Tmax stood at 3.03 ± 0.66 h, the half-life is 1060 ± 205 min and the Cmax was 288 ± 81 ng/mL. Moreover, in data set [1] (setting [6]), the AUC(0-inf) turned out to be 3880 ± 407 ng·h/mL, the Tmax was determined as 2.03 ± 0.95 h, the half-life was 945 ± 311 min and the Cmax stood at 307 ± 109 ng/mL. Besides, in data set [2] (setting [7]), the recovery at 56 h amounted to 93.5%, the recovery at 6 h is 96.8%, the recovery at 30 days is 97.3% and the recovery at 3 months was found to be 96.6%. Further, in data set [2] (low concentration level), the recovery at 56 h stood at 98.2%, the recovery at 6 h worked out at 98.2%, the recovery came out at 96.1% and the recovery at 30 days stood at 99.7%. Further, the recovery at 3 months in data set [2] (low concentration level) was 98.9%.

In the case of `COc1c(-c2ccc3cc(NS(C)(=O)=O)ccc3c2)cc(-n2ccc(=O)[nH]c2=O)cc1C(C)(C)C` [DSV, Dasabuvir], in data set [1], the “change in PK parameters following co-administration compared with single administration” value is recorded as “no significant changes”. Further, in data set [1] (setting [5]), the AUC(0-inf) worked out at 4660 ± 687 ng·h/mL, the Tmax amounted to 4.98 ± 0.61 h, the half-life was 1180 ± 325 min and the Cmax is 159 ± 49 ng/mL. Besides, in data set [1] (setting [6]), the total exposure AUC(0-inf) is 4270 ± 754 ng·h/mL, the Tmax was determined as 4.95 ± 1.07 h, the half-life was 1080 ± 356 min and the Cmax amounted to 144 ± 26.5 ng/mL. For the same compound, in data set [2] (setting [7]), the recovery at 56 h was 98.5%, the recovery at 6 h came to 95%, the recovery at 30 days turned out to be 98.8% and the recovery at 3 months came out at 97.6%. Also, in data set [2] (low concentration level), the recovery at 56 h is 95.5%, the recovery at 6 h was found to be 96.3%, the recovery was found to be 98.5% and the recovery at 30 days turned out to be 96.8%. The recovery at 3 months in data set [2] (low concentration level) was 96.2%. In data set [3], the “pKa (pK1)” value is given as 8.2 and the “pKa (pK2)” value is on record as 9.2.

For the compound `CC/C(=C(\c1ccc(O)cc1)c1ccc(OCCN(C)C)cc1)c1ccccc1` [TOH, 4-hydroxy tamoxifen], the “reported estrogenic properties, times more potent than TAM” value in data set [4] (at least, reported) was 30–100 times. Moreover, in data set [4], the “times more potent than TAM in inhibiting estrogen-dependent cell proliferation” value is given as 30 to 100 times. Moreover, the “change in PK parameters following co-administration compared with single administration” value in data set [1] is “no significant changes”. For the same compound, in data set [1] (setting [5]), the AUC(0-inf) is 4550 ± 913 ng·h/mL, the Tmax was 5.03 ± 0.66 h, the half-life was 1180 ± 84.6 min and the Cmax came to 164 ± 54.5 ng/mL. Further, in data set [1] (setting [6]), the AUC(0-inf) is 4730 ± 774 ng·h/mL, the Tmax turned out to be 2.03 ± 0.95 h, the half-life was 1730 ± 119 min and the peak concentration (Cmax) is 172 ± 54 ng/mL. Also, the “M.R.(%) metabolite ratio” value in data set [1] (oral co-administration of DSV 50 mg/kg and TAM 10 mg/kg) came out at 129.65 ± 10.88%. In data set [1] (single oral TAM 10 mg/kg), the “M.R.(%) metabolite ratio” value is on record as 121.86 ± 11%. Also, in data set [2] (setting [7]), the recovery at 56 h was 95.2%, the recovery at 6 h came to 98.9%, the recovery at 30 days was 95.8% and the recovery at 3 months was found to be 97%. Also, in data set [2] (low concentration level), the recovery at 56 h worked out at 99.7%, the recovery at 6 h was 96.9%, the recovery was 97.5% and the recovery at 30 days is 99%. For the same compound, in data set [2] (low concentration level), the recovery at 3 months stood at 98%. Besides, the pka in data set [3] is 8.66 and 9.45.
